According to publication PMC10035947, “Development of novel anilinoquinazoline-based carboxylic acids as non-classical carbonic anhydrase IX and XII inhibitors” (Journal of Enzyme Inhibition and Medicinal Chemistry, 2023):
Where two headings read alike, the source gives them in different places.

Assays:
UACC-257 = assay: NCI SRB assay; assay type: cell-based, human
SNB-75 = assay: NCI SRB assay; assay type: cell-based, human; conditions: for CC50: read-out: LC50 (the source's name)
NCI-H460 = assay: NCI SRB assay; assay type: cell-based, human
SK-MEL-28 = assay: NCI SRB assay; assay type: cell-based, human; conditions: for CC50: read-out: LC50 (the source's name)
HCT-15 = assay: NCI SRB assay; assay type: cell-based, human
SK-MEL-2 = assay: NCI SRB assay; assay type: cell-based, human
HOP-92 = assay: NCI SRB assay; assay type: cell-based, human; conditions: for CC50: read-out: LC50 (the source's name)
SF-268 = assay: NCI SRB assay; assay type: cell-based, human; conditions: for CC50: read-out: LC50 (the source's name)
U251 = assay: NCI SRB assay; assay type: cell-based, human; conditions: for CC50: read-out: LC50 (the source's name)
OVCAR-4 = assay: NCI SRB assay; assay type: cell-based, human; conditions: for CC50: read-out: LC50 (the source's name)
[1] = system: 59 human cancer cell lines representing nine tumour subpanels; assay: NCI SRB assay, panel and subpanel summaries; conditions: for GI50: Homo sapiens; for Selectivity index: full panel MG-MID / subpanel MG-MID
HL-60(TB) = assay: NCI SRB assay; assay type: cell-based, human; conditions: for CC50: read-out: LC50 (the source's name)
ACHN = assay: NCI SRB assay; assay type: cell-based, human; conditions: for GI50 / TGI / CC50: 5-dose; for CC50: read-out: LC50 (the source's name)
[2] = Homo sapiens, SNB-75, SNB-75, 5-dose
[3] = Homo sapiens, HCT-15, HCT-15, 5-dose
[4] = Homo sapiens, HOP-92, HOP-92, 5-dose
[5] = Homo sapiens, U-251, U251, 5-dose
[6] = Homo sapiens, OVCAR-4, OVCAR-4, 5-dose

Cc1ccc(-c2nc(Nc3ccccc3C(=O)O)c3ccccc3n2)cc1 [6b, 2-((2-(p-Tolyl)quinazolin-4-yl)amino)benzoic acid]
Growth Percent (UACC-257; UACC-257, 1.00E-5 Molar): 28.64% | TGI (UACC-257; UACC-257, 5-dose): 90.3 µM | TGI (UACC-257; UACC-257, 5-dose, listed as D - 835857): 9.03E-5 Molar | CC50 (UACC-257; UACC-257, 5-dose, read-out: LC50 (the source's name)): < 100 µM | GI50 (SNB-75; [2]): 1.36 µM | CC50 (SNB-75; [2]): > 100 µM | GI% (SNB-75; SNB-75, 10 μM): 84% | Growth Percent (SNB-75; SNB-75, 1.00E-5 Molar): 15.71% | GI50 (SNB-75; SNB-75, 5-dose): 1.4 µM | TGI (SNB-75; SNB-75, 5-dose): 80.3 µM | TGI (SNB-75; SNB-75, 5-dose, listed as D - 835857): 8.03E-5 Molar | CC50 (SNB-75; SNB-75, 5-dose): < 100 µM | GI50 (NCI-H460; Homo sapiens, NCI-H460, NCI-H460, 5-dose): 8.52 µM | LC50 (concentration giving 50% net cell kill) (NCI-H460; Homo sapiens, NCI-H460, 5-dose): 84 µM | GI% (NCI-H460; NCI-H460, 10 μM): 109% | Growth Percent (NCI-H460; NCI-H460, 1.00E-5 Molar): -9.44% | GI50 (NCI-H460; NCI-H460, 5-dose): 8.5 µM | TGI (NCI-H460; NCI-H460, 5-dose): 27.7 µM | TGI (NCI-H460; NCI-H460, 5-dose, listed as D - 835857): 2.77E-5 Molar | CC50 (SK-MEL-28; Homo sapiens, SK-MEL-28, SK-MEL-28, 5-dose): > 100 µM | GI50 (SK-MEL-28; Homo sapiens, SK-MEL-28, 5-dose): 15.9 µM | GI% (SK-MEL-28; SK-MEL-28, 10 μM): 71% | Growth Percent (SK-MEL-28; SK-MEL-28, 1.00E-5 Molar): 28.75% | TGI (SK-MEL-28; SK-MEL-28, 5-dose): 97.4 µM | TGI (SK-MEL-28; SK-MEL-28, 5-dose, listed as D - 835857): 9.74E-5 Molar | CC50 (SK-MEL-28; SK-MEL-28, 5-dose): < 100 µM | GI% (HCT-15; HCT-15, 10 μM): 95% | Growth Percent (HCT-15; HCT-15, 1.00E-5 Molar): 4.66% | GI50 (HCT-15; HCT-15, 5-dose): 5.8 µM | LC50 (HCT-15; HCT-15, 5-dose): < 100 µM | TGI (HCT-15; HCT-15, 5-dose): 28.7 µM | TGI (HCT-15; HCT-15, 5-dose, listed as D - 835857): 2.87E-5 Molar | GI50 (HCT-15; [3]): 5.82 µM | LC50 (HCT-15; [3]): > 100 µM | GI50 (SK-MEL-2; Homo sapiens, SK-MEL-2, SK-MEL-2, 5-dose): 3.65 µM | CC50 (SK-MEL-2; Homo sapiens, SK-MEL-2, 5-dose, read-out: LC50 (the source's name)): 83.5 µM | GI% (SK-MEL-2; SK-MEL-2, 10 μM): 94% | Growth Percent (SK-MEL-2; SK-MEL-2, 1.00E-5 Molar): 5.75% | GI50 (SK-MEL-2; SK-MEL-2, 5-dose): 3.7 µM | TGI (SK-MEL-2; SK-MEL-2, 5-dose): 15.6 µM | TGI (SK-MEL-2; SK-MEL-2, 5-dose, listed as D - 835857): 1.56E-5 Molar | GI% (HOP-92; HOP-92, 10 μM): 120% | Growth Percent (HOP-92; HOP-92, 1.00E-5 Molar): -19.52% | GI50 (HOP-92; HOP-92, 5-dose): 2.9 µM | TGI (HOP-92; HOP-92, 5-dose): 29.3 µM | TGI (HOP-92; HOP-92, 5-dose, listed as D - 835857): 2.93E-5 Molar | CC50 (HOP-92; HOP-92, 5-dose): < 100 µM | GI50 (HOP-92; [4]): 2.85 µM | CC50 (HOP-92; [4]): > 100 µM | CC50 (SF-268; Homo sapiens, SF-268, SF-268, 5-dose): > 100 µM | GI50 (SF-268; Homo sapiens, SF-268, 5-dose): 14.3 µM | GI% (SF-268; SF-268, 10 μM): 89% | Growth Percent (SF-268; SF-268, 1.00E-5 Molar): 11.24% | TGI (SF-268; SF-268, 5-dose): <100 µM | TGI (SF-268; SF-268, 5-dose, listed as D - 835857): > 1.00E-4 Molar | CC50 (SF-268; SF-268, 5-dose): < 100 µM | GI50 (U251; [5]): 5.58 µM | CC50 (U251; [5]): > 100 µM | GI% (U251; U251, 10 μM): 82% | Growth Percent (U251; U251, 1.00E-5 Molar): 18.45% | GI50 (U251; U251, 5-dose): 5.6 µM | TGI (U251; U251, 5-dose): 35.0 µM | TGI (U251; U251, 5-dose, listed as D - 835857): 3.50E-5 Molar | CC50 (U251; U251, 5-dose): < 100 µM | GI50 (OVCAR-4; [6]): 8.77 µM | CC50 (OVCAR-4; [6]): > 100 µM | GI% (OVCAR-4; OVCAR-4, 10 μM): 78% | Growth Percent (OVCAR-4; OVCAR-4, 1.00E-5 Molar): 21.83% | GI50 (OVCAR-4; OVCAR-4, 5-dose): 8.8 µM | TGI (OVCAR-4; OVCAR-4, 5-dose): <100 µM | TGI (OVCAR-4; OVCAR-4, 5-dose, listed as D - 835857): > 1.00E-4 Molar | CC50 (OVCAR-4; OVCAR-4, 5-dose): < 100 µM | Mean GI % ([1]; 10 μM, all cell lines): 84% | Mean Growth Percent ([1]; 1.00E-5 Molar, all cell lines): 15.81% | GI50 ([1]; read-out: Full panel MG-MID (GI50), full panel): 12 µM | GI50 ([1]; read-out: MG-MID (median GI50), Breast cancer subpanel): 11 µM | GI50 ([1]; read-out: MG-MID (median GI50), CNS cancer subpanel): 8.04 µM | GI50 ([1]; read-out: MG-MID (median GI50), Colon cancer subpanel): 13.7 µM | GI50 ([1]; read-out: MG-MID (median GI50), Leukaemia subpanel): 8.68 µM | GI50 ([1]; read-out: MG-MID (median GI50), Melanoma subpanel): 11.7 µM | GI50 ([1]; read-out: MG-MID (median GI50), Non-small cell lung cancer subpanel): 9.24 µM | GI50 ([1]; read-out: MG-MID (median GI50), Ovarian cancer subpanel): 15.7 µM | GI50 ([1]; read-out: MG-MID (median GI50), Prostate cancer subpanel): 15.2 µM | GI50 ([1]; read-out: MG-MID (median GI50), Renal cancer subpanel): 14.7 µM | Selectivity index ([1]; Breast cancer): 1.09 | Selectivity index ([1]; CNS cancer): 1.49 | Selectivity index ([1]; Colon cancer): 0.87 | Selectivity index ([1]; Leukaemia): 1.38 | Selectivity index ([1]; Melanoma): 1.02 | Selectivity index ([1]; Non-small cell lung cancer): 1.29 | Selectivity index ([1]; Ovarian cancer): 0.76 | Selectivity index ([1]; Prostate cancer): 0.78 | Selectivity index ([1]; Renal cancer): 0.81 | GI% (HL-60(TB); HL-60(TB), 10 μM): 82% | Growth Percent (HL-60(TB); HL-60(TB), 1.00E-5 Molar): 17.80% | TGI (HL-60(TB); HL-60(TB), 5-dose): 75.4 µM | TGI (HL-60(TB); HL-60(TB), 5-dose, listed as D - 835857): 7.54E-5 Molar | CC50 (HL-60(TB); HL-60(TB), 5-dose): < 100 µM | CC50 (HL-60(TB); Homo sapiens, HL-60, HL-60(TB), 5-dose): > 100 µM | GI50 (HL-60(TB); Homo sapiens, HL-60(TB), 5-dose): 12.9 µM | GI% (ACHN; 10 μM): 92% | Growth Percent (ACHN; 1.00E-5 Molar): 7.89% | GI50 (ACHN): 6.4 µM | TGI (ACHN): 91.1 µM | TGI (ACHN; listed as D - 835857): 9.11E-5 Molar | CC50 (ACHN): < 100 µM | GI50 (ACHN; Homo sapiens): 6.44 µM | CC50 (ACHN; Homo sapiens): > 100 µM
